The source of these data is PubChem BioAssay AID651630 (Sanford-Burnham Center for Chemical Genomics, 2012).

As a reminder, the IC50 is the concentration at which inhibition is half-maximal.

Calls of active or inactive are those of the source.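 How the source made its calls: active means lipid-stain IC50 at or below a set limit, with nuclear-stain toxicity IC50 at least five times higher; inactive means the rest.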

The test system of one experiment is DAPI. Description: triacylglycerol accumulation inhibitor potency, dose response, cell-based, panel, Nile Red and DAPI fluorescence, H9c2 (AID 651630).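 Further: cells exposed to compound overnight before fixation and staining.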 The conditions noted are these: H9c2 cells, DAPI nuclear fluorescence (cytotoxicity counter-readout), oleic acid.
A further experiment relates to TAG. The experiment is described as above. The conditions noted are these: H9c2 cells, Nile Red TAG fluorescence, oleic acid.

As to `COc1cccc(/C=N/NC(=O)CSc2cccc3cccnc23)c1`, the IC50 cytotoxicity (DAPI nuclear signal decrease) in the experiment with DAPI (mean of runs) is > 25 µM (inactive); in the experiment on DAPI (run 1), more than 25 µM; in the experiment with DAPI (run 2), more than 25 µM. For the same molecule, the IC50 is > 25 µM (inactive) with TAG (mean of runs), more than 25 µM in the experiment on TAG (run 1) and more than 25 µM with TAG (run 2).

As to `CCOc1cc(CNc2ccc3c(c2)OCCO3)cc(Br)c1OCC`, the IC50 cytotoxicity (DAPI nuclear signal decrease) with DAPI (mean of runs) was > 25 µM (inactive); in the experiment with DAPI (run 1), more than 25 µM; in the experiment on DAPI (run 2) it was more than 25 µM. Also, the IC50 with TAG (mean of runs) was > 25 µM (inactive); with TAG (run 1), more than 25 µM; with TAG (run 2), more than 25 µM.

For the molecule `COc1ccc(NS(=O)(=O)c2cc(C)ccc2NC(=O)c2cc(C)oc2C)cc1`, the IC50 cytotoxicity (DAPI nuclear signal decrease) in the experiment on DAPI (mean of runs) was > 25 µM (inactive); in the experiment with DAPI (run 1) it was more than 25 µM; with DAPI (run 2) it was more than 25 µM. Further, the values for the IC50 with TAG (mean of runs), in the experiment with TAG (run 1) and in the experiment with TAG (run 2) were 8.59 µM, 9.83 µM and 7.35 µM, respectively.

With `COc1ccc(NC(=O)c2nc(C)c(C3(C)CC(c4ccccc4)=NO3)s2)cc1` (centres undefined), the IC50 cytotoxicity (DAPI nuclear signal decrease) with DAPI (mean of runs) was > 25 µM (inactive); in the experiment with DAPI (run 1), more than 25 µM; with DAPI (run 2) it was more than 25 µM. Further, the 50% inhibitory concentration (IC50) was 7.56 µM with TAG (mean of runs), 4.88 µM with TAG (run 1) and 10.2 µM in the experiment with TAG (run 2).

Regarding `COc1cc(OC)c2c(-c3ccccc3)cc(=O)oc2c1C(CCN1CCCC(C)C1)c1ccc2c(c1)OCO2` (centres undefined), the IC50 cytotoxicity (DAPI nuclear signal decrease) in the experiment on DAPI (mean of runs) is > 25 µM (inactive); with DAPI (run 1) it was more than 25 µM; in the experiment on DAPI (run 2), more than 25 µM. Also, the half-maximal inhibitory concentration (IC50) in the experiment on TAG (run 1) was more than 25 µM; in the experiment with TAG (run 2), 13.7 µM.

Regarding `CC1CCN(c2cc(N3CCC(C)CC3)c([N+](=O)[O-])cc2/C=C(\C#N)c2nn(-c3ccccc3)c(N)c2C#N)CC1`, the IC50 cytotoxicity (DAPI nuclear signal decrease) is > 25 µM (inactive) in the experiment on DAPI (mean of runs), more than 25 µM in the experiment on DAPI (run 1) and more than 25 µM in the experiment with DAPI (run 2). The results for the IC50 in the experiment on TAG (mean of runs), in the experiment with TAG (run 1) and in the experiment with TAG (run 2) were > 25 µM (inactive), more than 25 µM and more than 25 µM, respectively.

Consider `CCCCOc1ccc(CSC2=NCCN2)cc1[N+](=O)[O-]`, for which the IC50 cytotoxicity (DAPI nuclear signal decrease) in the experiment on DAPI (mean of runs) was > 25 µM (inactive); in the experiment with DAPI (run 1), more than 25 µM; in the experiment with DAPI (run 2), more than 25 µM. In addition, the IC50 is > 25 µM (inactive) with TAG (mean of runs), more than 25 µM in the experiment on TAG (run 1) and more than 25 µM in the experiment with TAG (run 2).

For `COC(=O)[C@]1(CC(C)C)N[C@H](c2ccc(-c3ccc(F)cc3)cc2)[C@@H]2C(=O)N(C)C(=O)[C@@H]21`, the IC50 cytotoxicity (DAPI nuclear signal decrease) in the experiment with DAPI (mean of runs) was > 25 µM (inactive); in the experiment with DAPI (run 1), more than 25 µM; in the experiment with DAPI (run 2), more than 25 µM. Also, the figures for the half-inhibitory concentration (IC50) in the experiment on TAG (mean of runs), in the experiment on TAG (run 1) and in the experiment on TAG (run 2) were 14.9 µM, 14.6 µM and 15.1 µM, respectively.

Turning to `COc1ccc(-c2cc(C(=O)Nc3cc(OC)cc(C(=O)Nc4cccc(C(F)(F)F)c4)c3)[nH]n2)cc1`, the IC50 cytotoxicity (DAPI nuclear signal decrease) in the experiment on DAPI (mean of runs) was > 25 µM (inactive); in the experiment on DAPI (run 1) it was more than 25 µM; in the experiment with DAPI (run 2), more than 25 µM. Moreover, the IC50 in the experiment with TAG (run 1) was more than 25 µM; with TAG (run 2) it was 4.64 µM.

As for `OC1CC2CCC(C1)N2CCCN1c2ccccc2Sc2ccc(Cl)cc21` (centres undefined), the IC50 cytotoxicity (DAPI nuclear signal decrease) in the experiment with DAPI (run 1) was 19.4 µM; with DAPI (run 2), more than 25 µM. In addition, the IC50 in the experiment with TAG (run 1) was 10.3 µM; with TAG (run 2), more than 25 µM.

For `COc1cc(NC(=O)c2cc3cccc(OC)c3o2)cc(C(=O)Nc2cccc(C(F)(F)F)c2)c1`, the figures for the IC50 cytotoxicity (DAPI nuclear signal decrease) in the experiment on DAPI (mean of runs), in the experiment with DAPI (run 1) and in the experiment with DAPI (run 2) were > 25 µM (inactive), more than 25 µM and more than 25 µM, respectively. Moreover, the IC50 in the experiment on TAG (mean of runs) is 12 µM; in the experiment with TAG (run 1) it was 9.27 µM; in the experiment on TAG (run 2), 14.7 µM.

For `c1ccc(-c2nc(SCc3nc4ccccc4[nH]3)c3oc4ccccc4c3n2)cc1`, the IC50 cytotoxicity (DAPI nuclear signal decrease) in the experiment with DAPI (mean of runs) is > 25 µM (inactive); in the experiment with DAPI (run 1), more than 25 µM; in the experiment on DAPI (run 2), more than 25 µM. Further, the IC50 with TAG (mean of runs) was 10.5 µM; in the experiment with TAG (run 1), 10 µM; in the experiment with TAG (run 2), 11 µM.

Consider `O=[N+]([O-])c1cccc(S(=O)(=O)N2CN(c3ccc(Br)cc3)c3nc4ccccc4nc32)c1`, for which the IC50 cytotoxicity (DAPI nuclear signal decrease) is > 25 µM (inactive) in the experiment on DAPI (mean of runs), more than 25 µM in the experiment with DAPI (run 1) and more than 25 µM with DAPI (run 2). In addition, the 50% inhibitory concentration (IC50) in the experiment on TAG (mean of runs) was 8.37 µM; in the experiment on TAG (run 1) it was 8.4 µM; in the experiment with TAG (run 2) it was 8.34 µM.

Regarding `COc1ccc(-n2nc(C(=O)Nc3ccc4c(c3)OCO4)c3c4ccccc4n(C)c3c2=O)cc1`, the IC50 cytotoxicity (DAPI nuclear signal decrease) was > 25 µM (inactive) in the experiment on DAPI (mean of runs), more than 25 µM in the experiment with DAPI (run 1) and more than 25 µM with DAPI (run 2). Further, the half-inhibitory concentration (IC50) was 24.8 µM in the experiment on TAG (run 1) and more than 25 µM in the experiment on TAG (run 2).

For `COc1ccccc1N1CCN(CC(=O)Nc2cc(C)nn2-c2nc(C)cc(C)n2)CC1`, the values for the IC50 cytotoxicity (DAPI nuclear signal decrease) in the experiment on DAPI (mean of runs), with DAPI (run 1) and in the experiment on DAPI (run 2) were > 25 µM (inactive), more than 25 µM and more than 25 µM, respectively. Also, the figures for the IC50 in the experiment on TAG (mean of runs), with TAG (run 1) and with TAG (run 2) were 18.9 µM (inactive), 19.7 µM and 18.1 µM, respectively.

Turning to `CC(C)C[C@@H](CN1CCCC1CN1C(=S)NC[C@@H]1Cc1ccc(O)cc1)N1C[C@H](Cc2ccccc2)N(CC2CCCCC2)C1=S` (some centres undefined), the IC50 cytotoxicity (DAPI nuclear signal decrease) in the experiment with DAPI (mean of runs) was 21.8 µM (inactive); with DAPI (run 1), 21.7 µM; in the experiment on DAPI (run 2), 21.8 µM. Moreover, the IC50 with TAG (mean of runs) was > 25 µM (inactive); with TAG (run 1), more than 25 µM; in the experiment with TAG (run 2) it was more than 25 µM.

On to `C[C@H](O)[C@@H]1CN2CCc3c([nH]c4ccc(-c5ccc6c(c5)OCO6)cc34)[C@@H]2C[C@@H]1N(C)C(=O)Nc1cc(Cl)cc(Cl)c1`, for which the IC50 cytotoxicity (DAPI nuclear signal decrease) is > 25 µM (inactive) in the experiment on DAPI (mean of runs), more than 25 µM with DAPI (run 1) and more than 25 µM in the experiment with DAPI (run 2). Further, the IC50 in the experiment on TAG (mean of runs) was 18.2 µM (inactive); with TAG (run 1), 11.9 µM; in the experiment on TAG (run 2), 24.5 µM.

As to `COc1ccc(C(C(=O)NC(C)(C)C)N(Cc2ccco2)C(=O)CCC(=O)Nc2cc(C)on2)cc1` (centres undefined), the IC50 cytotoxicity (DAPI nuclear signal decrease) with DAPI (mean of runs) was > 25 µM (inactive); in the experiment with DAPI (run 1) it was more than 25 µM; in the experiment on DAPI (run 2), more than 25 µM. Also, the IC50 is 19 µM (inactive) in the experiment on TAG (mean of runs), 19.9 µM in the experiment with TAG (run 1) and 18.1 µM in the experiment on TAG (run 2).

With `Cc1cc(NC(=O)CC2CCCC2)n(-c2nc3ccccc3[nH]2)n1`, the IC50 cytotoxicity (DAPI nuclear signal decrease) with DAPI (mean of runs) was > 25 µM (inactive); in the experiment on DAPI (run 1), more than 25 µM; in the experiment on DAPI (run 2), more than 25 µM. The IC50 in the experiment on TAG (run 1) was more than 25 µM; in the experiment on TAG (run 2) it was 11.2 µM.

Take `Nc1c(C(=O)NC2CCCC2)c2nc3ccccc3nc2n1/N=C/c1cccnc1`: the IC50 cytotoxicity (DAPI nuclear signal decrease) with DAPI (mean of runs) is > 25 µM (inactive); in the experiment with DAPI (run 1), more than 25 µM; with DAPI (run 2), more than 25 µM. The IC50 in the experiment on TAG (mean of runs) is 19 µM (inactive); with TAG (run 1) it was 15 µM; in the experiment on TAG (run 2) it was 23 µM.

In the case of `COc1ccc(CC(N)c2csc(NC(=O)Nc3ccccc3-c3ccccc3)n2)cc1` (centres undefined), the values for the IC50 cytotoxicity (DAPI nuclear signal decrease) with DAPI (mean of runs), in the experiment with DAPI (run 1) and with DAPI (run 2) were 17.6 µM (inactive), 19.3 µM and 15.9 µM, respectively. Further, the concentration for half-maximal inhibition (IC50) with TAG (run 1) is more than 25 µM; with TAG (run 2) it was 15.5 µM.

In the case of `Cc1[nH]c2ccccc2c1C(c1ccccn1)N1CCC(C)CC1` (centres undefined), the results for the IC50 cytotoxicity (DAPI nuclear signal decrease) in the experiment with DAPI (mean of runs), in the experiment with DAPI (run 1) and in the experiment with DAPI (run 2) were 21.8 µM (inactive), 21.2 µM and 22.4 µM, respectively. Moreover, the figures for the IC50 in the experiment with TAG (mean of runs), with TAG (run 1) and in the experiment on TAG (run 2) were 15.5 µM (inactive), 14.8 µM and 16.2 µM, respectively.

As for `Cn1cc(CN2CCC(C(=O)NC(c3ccc(F)cc3)c3ccc4ccccc4n3)CC2)c2ccccc21` (centres undefined), the results for the IC50 cytotoxicity (DAPI nuclear signal decrease) in the experiment with DAPI (mean of runs), with DAPI (run 1) and in the experiment on DAPI (run 2) were 13.7 µM (inactive), 14.5 µM and 13 µM, respectively. In addition, the IC50 in the experiment with TAG (mean of runs) is 10.3 µM; with TAG (run 1), 9.38 µM; with TAG (run 2), 11.2 µM.

Take `CC1(C(=O)NCc2ccco2)Cc2c(-c3cccc(C(F)(F)F)c3)ccnc2O1` (centres undefined): the IC50 cytotoxicity (DAPI nuclear signal decrease) is > 25 µM (inactive) in the experiment on DAPI (mean of runs), more than 25 µM in the experiment on DAPI (run 1) and more than 25 µM in the experiment on DAPI (run 2). The IC50 in the experiment on TAG (mean of runs) is > 25 µM (inactive); with TAG (run 1), more than 25 µM; in the experiment on TAG (run 2), more than 25 µM.

Regarding `C[C@@H]1CN([C@H](C)CO)C(=O)c2cccc(NC(=O)Nc3ccc(C(F)(F)F)cc3)c2O[C@H]1CN(C)S(=O)(=O)c1cccs1`, the values for the IC50 cytotoxicity (DAPI nuclear signal decrease) in the experiment with DAPI (mean of runs), in the experiment on DAPI (run 1) and with DAPI (run 2) were > 25 µM (inactive), more than 25 µM and more than 25 µM, respectively. The values for the IC50 with TAG (mean of runs), in the experiment with TAG (run 1) and in the experiment with TAG (run 2) were 15.9 µM (inactive), 13.8 µM and 18 µM, respectively.

For the molecule `COc1ccc(-c2ccc3[nH]c4c(c3c2)CCN2C(=O)[C@@H]([C@H](C)O)[C@@H](N(C)C(=O)Nc3cc(Cl)cc(Cl)c3)C[C@@H]42)cc1`, the results for the IC50 cytotoxicity (DAPI nuclear signal decrease) in the experiment with DAPI (mean of runs), in the experiment on DAPI (run 1) and in the experiment with DAPI (run 2) were > 25 µM (inactive), more than 25 µM and more than 25 µM, respectively. Moreover, the results for the IC50 with TAG (mean of runs), with TAG (run 1) and in the experiment on TAG (run 2) were 19.5 µM (inactive), 17.4 µM and 21.5 µM, respectively.
